Reference: patent publication US10017509B2, “Macrocylic pyrimidine derivatives” (Janssen Pharmaceutica NV, priority 2014, dated 2018)

Columns and labels:
EF2K [1] = target: T1, EF2K (Homo sapiens, UniProt O00418); assay: Biochemical EF2K lysate-based kinase assay (AlphaLISA p-eEF2 Thr56); conditions: pIC50 = -log IC50 (M), read-out: eEF2K_C_alphalisa pIC50 (converted)
T1 construct: host or cells: LN-229 cell lysate
T1 sequence (O00418 1-725): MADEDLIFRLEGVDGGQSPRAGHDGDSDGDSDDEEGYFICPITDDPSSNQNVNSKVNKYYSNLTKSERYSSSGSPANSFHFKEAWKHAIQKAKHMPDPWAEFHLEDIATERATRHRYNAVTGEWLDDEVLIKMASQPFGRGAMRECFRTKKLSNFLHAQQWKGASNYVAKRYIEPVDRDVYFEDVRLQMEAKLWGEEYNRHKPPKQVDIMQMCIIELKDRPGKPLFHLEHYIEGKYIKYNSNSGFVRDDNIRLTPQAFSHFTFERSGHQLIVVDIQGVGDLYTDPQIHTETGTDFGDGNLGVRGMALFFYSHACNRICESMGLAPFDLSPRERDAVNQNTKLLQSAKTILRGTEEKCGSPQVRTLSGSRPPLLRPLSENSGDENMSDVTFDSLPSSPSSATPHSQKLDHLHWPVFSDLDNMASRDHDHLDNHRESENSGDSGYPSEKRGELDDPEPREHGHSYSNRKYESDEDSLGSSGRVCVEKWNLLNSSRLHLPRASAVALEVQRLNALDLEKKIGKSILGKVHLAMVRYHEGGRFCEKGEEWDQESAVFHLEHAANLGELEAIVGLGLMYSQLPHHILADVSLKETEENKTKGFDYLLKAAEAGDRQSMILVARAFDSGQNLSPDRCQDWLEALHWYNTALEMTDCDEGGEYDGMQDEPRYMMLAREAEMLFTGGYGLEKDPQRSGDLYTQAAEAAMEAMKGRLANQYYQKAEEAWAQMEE
Excerpt: Biochemical EF2K Lysate-Based Kinase Assay
LN-229 cells were purchased from ATCC (CRL-2611); these are glioblastoma cells. Cell lysates from LN229 were used in this kinase assay to provide both the kinase and the substrate (EF2). The AlphaLISA p-eEF2 (Thr56) detection assay was developed using a sandwich assay format with two specific antibodies recognizing different epitopes of the target, including one antibody against the phosphorylation site of interest. One anti-eEF2 antibody was conjugated onto AlphaLISA Acceptor beads, while the second antibody was biotinylated and captured by streptavidin coated Donor beads.
Compound was mixed with LN-229 cell lysates in the presence of a kinase buffer (e.g. HEPES) at a pH of 6.6, containing 10 mM Mg^2+ (e.g. magnesium acetate) and 10 mM adenosine-tri-phosphate (ATP) and incubated at room temperature for 15 minutes. The kinase reaction was stopped with excess ethylenediaminetetraacetic acid disodium salt and the biotinylated-anti phospho eEF2 antibody (3 nM) was added for 1 hour. Then the anti-EF2 acceptor beads (10 μg/ml) as well as the streptavidin coated donor beads (20 μg/ml) were added for 1 hour, and the AlphaLISA signal was measured in an Envision instrument once, left overnight, and measured again for the final read.
(§1) (pIC50 is −log IC50 where IC50 represents the concentration expressed in M at which the test compound gives 50% inhibition)

EF2K [2] = target: T1, EF2K; assay: EF2K cell-based assay (P-EF2 AlphaLISA, 2-deoxyglucose stimulated MCF10A cells); conditions: 2.5 mM 2-deoxyglucose stimulated, P-EF2 Thr56, pIC50 = -log IC50 (M), read-out: eEF2K_C_PThr56 pIC50 (converted)
Procedure: In this assay, 2.5 mM 2-deoxyglucose was used to deplete intracellular ATP and activate 5′ adenosine monophosphate-activated protein kinase (AMPK) in the immortalized epithelial breast cell lines, MCF10A. MCF 10A cells were purchased from ATCC (CRL-10317).
MCF10A cells are seeded at a density of 1.25×10^5 Cells/ml at 100 μl/well in a 96-well plate and incubated for 24 hours (37° C., 5% CO2). Compound is added for 1 hour, and cell are stimulated with 2.5 mM of 2-deoxy-glucose for 4 hours. Medium is then removed, and cells are lysed in an ice-cold buffer M-PER (Thermo Scientific, 78501), containing protease and phosphatase inhibitors. P-EF2 levels are determined in these lysates using the P-EF2 AlphaLISA described above.
as §1

[3] = target: Vps34 (PIK3C3 lipid kinase) (Homo sapiens, UniProt Q8NEB9); assay: Biochemical Vps34 lipid kinase assay (ADP-Glo); conditions: for remaining activity at 1 µM: 1 h, single dose 1 μM compound, residual activity compared to control (DMSO), read-out: VPS34_1microM_% of cntrl; for IC50: serial half-log dilution 10 μM to 0.3 nM, pIC50 = -log IC50 (M)
Procedure: Biochemical Vps34 Lipid Kinase Assay
A non-radiometric kinase assay (ADP-Glo™ Assay, Promega, Madison, Wi, USA) was used for measuring the kinase activity of the PIK3C3 lipid kinase. All kinase assays were performed in 96-well half-area microtiter plates in a 25 μl reaction volume. The reaction cocktail was pipetted in 3 steps in the following order: • 10 μl of ATP solution (in assay buffer, see below) • 5 μl of test sample in 5% DMSO 10 μl of enzyme/substrate mixture
All lipid kinase assays contained 50 mM HEPES (4-(2-hydroxyethyl)-1-piperazineethanesulfonic acid)-NaOH, pH 7.5, 1 mM EGTA ((ethylene glycol tetraacetic acid), 100 mM NaCl, 0.03% CHAPS (3-[(3-Cholamidopropyl)dimethylammonio]-1-propanesulfonate), 2 mM DTT (Dithiothreitol), 20 μM ATP (corresponding to the apparent ATP-Km), kinase (7.6 nM) and substrate (50 μM). The assay for PIK3C3 additionally contained 3 mM MnCl2.
The reaction cocktails were incubated at 30° C. for 60 minutes. The reaction was stopped with 25 μl ADP-Go™ reagent per well. Plates were incubated for 40 minutes at room temperature, followed by addition of 50 μl kinase detection reagent per well and incubation for 60 minutes at room temperature. Signal was determined with a microplate luminescence reader (Victor, Perkin Elmer). The assay was either performed using a single dose of compound (1 μM final concentration in the assay reaction) with resulting data expressed as residual activity compared to control (DMSO), or using a serial (half-log) dilution of compounds starting at 10 μM and down to 0.3 nM (final concentrations in the assay) with data expressed as the pIC50.
as §1

Chain of Vps34 (PIK3C3 lipid kinase) (Q8NEB9 whole entry, species assumed): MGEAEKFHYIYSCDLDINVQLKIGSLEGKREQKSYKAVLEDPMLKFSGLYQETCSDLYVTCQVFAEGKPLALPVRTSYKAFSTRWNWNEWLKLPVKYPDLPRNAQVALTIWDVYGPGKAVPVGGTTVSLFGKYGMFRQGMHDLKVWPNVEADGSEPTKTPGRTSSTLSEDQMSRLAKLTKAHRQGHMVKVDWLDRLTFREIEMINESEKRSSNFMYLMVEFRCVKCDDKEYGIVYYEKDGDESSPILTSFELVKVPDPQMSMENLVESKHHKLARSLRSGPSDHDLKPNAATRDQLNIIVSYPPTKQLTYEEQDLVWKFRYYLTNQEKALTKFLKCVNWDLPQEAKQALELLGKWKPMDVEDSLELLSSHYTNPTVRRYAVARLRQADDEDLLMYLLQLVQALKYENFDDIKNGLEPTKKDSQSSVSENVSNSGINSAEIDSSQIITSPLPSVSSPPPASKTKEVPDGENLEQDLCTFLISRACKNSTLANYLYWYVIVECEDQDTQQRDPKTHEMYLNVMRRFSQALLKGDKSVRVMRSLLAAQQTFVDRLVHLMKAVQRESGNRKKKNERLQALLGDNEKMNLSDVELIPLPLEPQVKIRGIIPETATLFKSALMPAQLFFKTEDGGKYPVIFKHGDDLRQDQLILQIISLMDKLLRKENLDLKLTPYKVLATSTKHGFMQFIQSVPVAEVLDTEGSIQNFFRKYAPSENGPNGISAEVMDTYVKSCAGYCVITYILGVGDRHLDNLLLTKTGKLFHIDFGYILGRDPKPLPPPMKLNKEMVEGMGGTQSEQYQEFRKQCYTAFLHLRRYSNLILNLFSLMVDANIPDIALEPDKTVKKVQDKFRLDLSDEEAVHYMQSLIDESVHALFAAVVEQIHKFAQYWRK

Row | IC50 (EF2K [1]) [M] | IC50 (EF2K [2]) [M] | remaining activity at 1 µM [3] [%] | IC50 [3] [M] | SMILES
1 | 6.61e-07 | 2.14e-05 | 23.9 | 7.41e-07 | CN1CCCN(C)c2ccc(cn2)-c2ccnc(n2)Nc2cncc(c2)CN2CCN(CC2)CC1=O [Compound 33]
2 | 1.35e-07 | ~8.13e-07 | 17.7 | 2.24e-07 | O=C1CN2CCN(CC2)Cc2cccc(c2)Nc2nccc(n2)-c2ccc(nc2)CN(CC2CCCO2)CCN1 (stereo not drawn) [Compound 40]
3 | 3.24e-08 | 4.27e-07 | 10.2 | 3.02e-07 | COCCN1CCNC(=O)CN2CCN(CC2)Cc2cccc(c2)Nc2nccc(n2)-c2ccc(nc2)C1 [Compound 42]
4 | 6.17e-09 | 1.91e-07 | 4.32 | 1.07e-07 | CCCN1CCNC(=O)CN2CCN(CC2)Cc2cccc(c2)Nc2nccc(n2)-c2ccc(nc2)C1 [Compound 43]
5 | 8.51e-08 | 2.4e-06 | 10.2 | 3.02e-07 | O=C1CN2CCN(CC2)Cc2cccc(c2)Nc2nccc(n2)-c2ccc(nc2)CN(C(=O)C2CC2)CCN1 [Compound 44]
6 | 7.94e-09 | 2.19e-07 | – | 1.66e-07 | C=CCN1CCNC(=O)CN2CCN(CC2)Cc2cccc(c2)Nc2nccc(n2)-c2ccc(nc2)C1 [Compound 45]
7 | 9.12e-07 | > 3.02e-05 | 4.02 | 8.51e-08 | N#CCCN1CCCNC(=O)CN2CCN(Cc3cccc(c3)Nc3nccc(n3)-c3ccc1nc3)C(CO)C2 (stereo not drawn) [Compound 54]
8 | 4.07e-06 | 4.47e-06 | 3.19 | 1.26e-08 | O=C1CN2CCCN(CC2)Cc2cccc(c2)Nc2nccc(n2)-c2ccc(nc2)NCCCN1 [Compound 56]
9 | 2.4e-07 | > 3.02e-05 | 16.4 | 3.24e-07 | CN1CCCN(C)c2ccc(cn2)-c2ccnc(n2)Nc2cccc(c2)CN2CCN(CC1=O)C(CCO)C2 (stereo not drawn) [Compound 63]

The remaining lines, values behind:

Row | SMILES | IC50 (EF2K [1]) [M] | IC50 (EF2K [2]) [M] | remaining activity at 1 µM [3] [%] | IC50 [3] [M]
10 | CN1CCCN(C)c2ccc(cn2)-c2ccnc(n2)Nc2ccnc(c2)CN2CCN(CC2)CC1=O [Compound 32] | 1.17e-07 | 5.13e-06 | 11.1 | 1.45e-07
11 | O=C1CN2CCN(CC2)Cc2cccc(c2)Nc2nccc(n2)-c2ccc(nc2)CNCCN1 [Compound 34] | 5.25e-07 | ~7.24e-06 | – | 8.32e-07
12 | O=C1CN2CCN(CC2)Cc2cccc(c2)Nc2nccc(n2)-c2ccc(nc2)CN(CC2CC2)CCN1 [Compound 35] | 9.33e-09 | 1.32e-07 | – | 7.76e-08
13 | C#CCN1CCNC(=O)CN2CCN(CC2)Cc2cccc(c2)Nc2nccc(n2)-c2ccc(nc2)C1 [Compound 36] | 4.37e-08 | 1.32e-06 | 16 | 3.39e-07
14 | C=CCCN1CCNC(=O)CN2CCN(CC2)Cc2cccc(c2)Nc2nccc(n2)-c2ccc(nc2)C1 [Compound 37] | 7.59e-09 | 1.82e-07 | – | 9.55e-08
15 | CC(C)CN1CCNC(=O)CN2CCN(CC2)Cc2cccc(c2)Nc2nccc(n2)-c2ccc(nc2)C1 [Compound 38] | 8.91e-09 | 1.86e-07 | – | 7.76e-08
16 | O=C1CN2CCN(CC2)Cc2cccc(c2)Nc2nccc(n2)-c2ccc(nc2)CN(CC2CCOCC2)CCN1 [Compound 39] | 1.2e-06 | 3.09e-06 | 30.7 | –
17 | O=C1CN2CCN(CC2)Cc2cccc(c2)Nc2nccc(n2)-c2ccc(nc2)CN(CCOCC(F)(F)F)CCN1 [Compound 41] | ~4.47e-07 | 1.78e-06 | 30.8 | –
18 | O=C1CN2CCN(Cc3cccc(c3)Nc3nccc(n3)-c3ccc(nc3)NCCCN1)C(CO)C2 (stereo not drawn) [Compound 46] | 1.66e-07 | 4.9e-06 | 3.73 | 2.69e-08
19 | CC1CN2CCN1CC(=O)NCCCNc1ccc(cn1)-c1ccnc(n1)Nc1cccc(c1)C2 (stereo not drawn) [Compound 49] | 3.89e-07 | 2.34e-06 | 37.4 | –
20 | O=C1CN2CCN(Cc3cccc(c3)Nc3nccc(n3)-c3ccc(nc3)NCCCN1)C(C(F)(F)F)C2 (stereo not drawn) [Compound 50] | 1.12e-07 | 4.9e-06 | 12.4 | 3.98e-07
21 | CN1CCCN(C)c2ccc(cn2)-c2ccnc(n2)Nc2cccc(c2)CN2CCN(CC1=O)CC2CO (stereo not drawn) [Compound 51] | 1.55e-07 | 1.55e-05 | 14.6 | 4.79e-07
22 | COC(=O)C1CN2CCN1Cc1cccc(c1)Nc1nccc(n1)-c1ccc(nc1)N(C)CCCN(C)C(=O)C2 (stereo not drawn) [Compound 55] | 1.45e-07 | > 3.02e-05 | – | 8.91e-07
23 | CN1CCCN(C)c2ccc(cn2)-c2ccnc(n2)Nc2cccc(c2)CN2CCCN(CC2)CC1=O [Compound 57] | 2.57e-06 | > 3.02e-05 | – | 2.95e-07
24 | CC1CN2CCN1Cc1cccc(c1)Nc1nccc(n1)-c1ccc(nc1)N(C)CCCN(C)C(=O)C2 (stereo not drawn) [Compound 58] | 1.17e-07 | 2.09e-06 | 15.9 | 4.27e-07
25 | NC(=O)C1CN2CCN1Cc1cccc(c1)Nc1nccc(n1)-c1ccc(nc1)NCCCNC(=O)C2 (stereo not drawn) [Compound 59] | 5.75e-07 | > 3.02e-05 | 3.56 | 3.89e-08
26 | CC1CN2CCN1Cc1cccc(c1)Nc1nccc(n1)-c1ccc(nc1)NCCCNC(=O)C2 (stereo not drawn) [Compound 60] | 1.78e-07 | 2.75e-06 | 6.55 | 6.46e-08
27 | CN1CCCN(C)c2ccc(cn2)-c2ccnc(n2)Nc2cccc(c2)CN2CCN(CC2)C(c2ccccc2)C1=O (stereo not drawn) [Compound 64] | 7.24e-07 | 2.63e-05 | 64.6 | –
28 | O=C1NCCCNc2ccc(cn2)-c2ccnc(n2)Nc2cccc(c2)CN2CCN(CC2)C1CO (stereo not drawn) [Compound 65] | 1.66e-07 | 5.62e-06 | 10.8 | 3.31e-07
29 | COCC1C(=O)NCCCNc2ccc(cn2)-c2ccnc(n2)Nc2cccc(c2)CN2CCN1CC2 (stereo not drawn) [Compound 66] | 7.76e-08 | 4.17e-06 | 6.72 | 1.41e-07
